Measurements from article PMC5218480 (PLoS ONE, 2017).

Tested on: MV-4-11 cells
Experiment: Gene expression microarray analysis (Affymetrix PrimeView) and GSEA
Type: cell-based, human
Parameters: RFU PODN (11730768_x_at) / Fold change /veh PODN (11730768_x_at) / RFU LINC00158 (11744669_a_at) / Fold change /veh LINC00158 (11744669_a_at) / RFU DUSP10 (11751237_a_at) / Fold change /veh DUSP10 (11751237_a_at) / RFU ID3 (11757404_x_at) / Fold change /veh ID3 (11757404_x_at) / RFU PLEKHG5 (11737974_s_at) / Fold change /veh PLEKHG5 (11737974_s_at) / RFU LRRC4B (11730491_at) / Fold change /veh LRRC4B (11730491_at) / RFU GIMAP4 (11747438_a_at) / Fold change /veh GIMAP4 (11747438_a_at) / RFU KRT8 (11758183_x_at) / Fold change /veh KRT8 (11758183_x_at) / RFU CNN1 (11734310_a_at) / Fold change /veh CNN1 (11734310_a_at) / RFU VPS37D (11726825_at) / Fold change /veh VPS37D (11726825_at) / RFU C10orf10 (11716522_x_at) / Fold change /veh C10orf10 (11716522_x_at) / RFU KIR2DL2 /// KIR2DL4 /// KIR2DL5A /// KIR2DL5B /// KIR2DS1 /// KIR2DS2 /// KIR2DS3 /// KIR2DS4 /// KIR3DL3 /// KIR3DL3 /// KIR3DS1 (11738374_at) / Fold change /veh KIR2DL2 /// KIR2DL4 /// KIR2DL5A /// KIR2DL5B /// KIR2DS1 /// KIR2DS2 /// KIR2DS3 /// KIR2DS4 /// KIR3DL3 /// KIR3DL3 /// KIR3DS1 (11738374_at) / RFU C1QL1 (11718748_at) / Fold change /veh C1QL1 (11718748_at) / RFU TMPRSS4 (11747572_a_at) / Fold change /veh TMPRSS4 (11747572_a_at) / RFU HAMP (11756126_x_at) / Fold change /veh HAMP (11756126_x_at) / RFU RNFT2 (11725882_a_at) / Fold change /veh RNFT2 (11725882_a_at) / RFU NR4A2 (11747474_a_at) / Fold change /veh NR4A2 (11747474_a_at) / RFU ABCC12 (11746883_a_at) / Fold change /veh ABCC12 (11746883_a_at) / RFU TMEM136 (11760407_x_at) / Fold change /veh TMEM136 (11760407_x_at) / RFU CLDN22 /// WWC2 (11732394_at) / Fold change /veh CLDN22 /// WWC2 (11732394_at) / RFU HLA-DPB1 (11760878_x_at) / Fold change /veh HLA-DPB1 (11760878_x_at) / RFU SPINT1 (11716480_a_at) / Fold change /veh SPINT1 (11716480_a_at) / RFU GAP43 (11754022_s_at) / Fold change /veh GAP43 (11754022_s_at) / RFU A4GNT (11735810_at) / Fold change /veh A4GNT (11735810_at) / RFU PRB3 (11715151_x_at) / Fold change /veh PRB3 (11715151_x_at) / RFU TUBB4B (11761932_at) / Fold change /veh TUBB4B (11761932_at) / RFU CAPN14 (11732068_a_at) / Fold change /veh CAPN14 (11732068_a_at) / RFU TMCC2 (11721928_a_at) / Fold change /veh TMCC2 (11721928_a_at) / RFU IRGQ (11745062_a_at) / Fold change /veh IRGQ (11745062_a_at) / RFU FAM174B (11720279_a_at) / Fold change /veh FAM174B (11720279_a_at) / RFU TMPRSS4 (11748680_a_at) / Fold change /veh TMPRSS4 (11748680_a_at) / RFU FAM212B (11763350_a_at) / Fold change /veh FAM212B (11763350_a_at) / RFU PLEKHG5 (11743358_a_at) / Fold change /veh PLEKHG5 (11743358_a_at) / RFU ZSCAN30 (11745921_a_at) / Fold change /veh ZSCAN30 (11745921_a_at) / RFU CMKLR1 (11741424_a_at) / Fold change /veh CMKLR1 (11741424_a_at) / RFU LOC101060620 /// MAPK8IP1 (11723275_at) / Fold change /veh LOC101060620 /// MAPK8IP1 (11723275_at) / RFU SPTSSB (11747773_x_at) / Fold change /veh SPTSSB (11747773_x_at) / RFU PRSS12 (11739890_at) / Fold change /veh PRSS12 (11739890_at) / RFU BIN1 (11741810_x_at) / Fold change /veh BIN1 (11741810_x_at) / RFU WNT11 (11732464_a_at) / Fold change /veh WNT11 (11732464_a_at) / RFU C10orf10 (11716521_a_at) / Fold change /veh C10orf10 (11716521_a_at) / RFU C5orf56 (11738089_at) / Fold change /veh C5orf56 (11738089_at) / RFU CYB561 (11721691_x_at) / Fold change /veh CYB561 (11721691_x_at) / RFU ANKRD19P (11752326_a_at) / Fold change /veh ANKRD19P (11752326_a_at) / RFU OR2T12 /// OR2T33 /// OR2T8 (11738714_s_at) / Fold change /veh OR2T12 /// OR2T33 /// OR2T8 (11738714_s_at) / RFU VCAN (11748164_a_at) / Fold change /veh VCAN (11748164_a_at) / RFU JSRP1 (11732532_at) / Fold change /veh JSRP1 (11732532_at) / RFU KRTAP10-11 (11738290_x_at) / Fold change /veh KRTAP10-11 (11738290_x_at) / RFU MYO3A (11730013_a_at) / Fold change /veh MYO3A (11730013_a_at) / RFU EBF3 (11725865_a_at) / Fold change /veh EBF3 (11725865_a_at) / RFU CAMK2N1 (11719241_x_at) / Fold change /veh CAMK2N1 (11719241_x_at) / RFU C5orf56 (11738088_a_at) / Fold change /veh C5orf56 (11738088_a_at) / RFU OLFML3 (11715873_a_at) / Fold change /veh OLFML3 (11715873_a_at) / RFU LOC100653217 /// NTM (11731650_a_at) / Fold change /veh LOC100653217 /// NTM (11731650_a_at) / RFU MAPK11 (11762145_a_at) / Fold change /veh MAPK11 (11762145_a_at) / RFU FIZ1 (11724087_x_at) / Fold change /veh FIZ1 (11724087_x_at) / RFU OASL (11726364_x_at) / Fold change /veh OASL (11726364_x_at) / RFU SOX15 (11748057_x_at) / Fold change /veh SOX15 (11748057_x_at) / RFU CD79A (11719716_a_at) / Fold change /veh CD79A (11719716_a_at) / RFU HIST1H1D (11736915_at) / Fold change /veh HIST1H1D (11736915_at) / RFU CASKIN2 (11723855_a_at) / Fold change /veh CASKIN2 (11723855_a_at) / RFU LOC730098 (11760151_x_at) / Fold change /veh LOC730098 (11760151_x_at) / RFU OR4N2 (11742367_at) / Fold change /veh OR4N2 (11742367_at) / RFU PRRT2 (11749266_a_at) / Fold change /veh PRRT2 (11749266_a_at) / RFU SNX32 (11753110_a_at) / Fold change /veh SNX32 (11753110_a_at) / RFU CDHR5 (11726645_a_at) / Fold change /veh CDHR5 (11726645_a_at) / RFU RCAN1 (11760418_a_at) / Fold change /veh RCAN1 (11760418_a_at) / RFU FAM167A (11723789_a_at) / Fold change /veh FAM167A (11723789_a_at) / RFU FAM26E (11764081_at) / Fold change /veh FAM26E (11764081_at) / RFU ISYNA1 (11749810_s_at) / Fold change /veh ISYNA1 (11749810_s_at) / RFU ACY1 (11761880_at) / Fold change /veh ACY1 (11761880_at) / RFU 11764098_at / Fold change /veh 11764098_at / RFU SAMD14 (11745864_x_at) / Fold change /veh SAMD14 (11745864_x_at) / RFU NPB (11741838_a_at) / Fold change /veh NPB (11741838_a_at) / RFU TMPRSS6 (11731388_a_at) / Fold change /veh TMPRSS6 (11731388_a_at) / RFU KRTAP10-2 (11738614_at) / Fold change /veh KRTAP10-2 (11738614_at) / RFU ARHGAP8 /// PRR5-ARHGAP8 (11727945_x_at) / Fold change /veh ARHGAP8 /// PRR5-ARHGAP8 (11727945_x_at) / RFU KRTAP5-7 /// NADSYN1 (11734609_at) / Fold change /veh KRTAP5-7 /// NADSYN1 (11734609_at) / RFU RASL12 (11751679_a_at) / Fold change /veh RASL12 (11751679_a_at) / RFU CDKN2B (11736163_a_at) / Fold change /veh CDKN2B (11736163_a_at) / RFU PRF1 (11729649_at) / Fold change /veh PRF1 (11729649_at) / RFU, ZNF638 /// ZNF638-IT1 / Fold change vs veh, ZNF638 /// ZNF638-IT1 / RFU, PANK3 / Fold change vs veh, PANK3 / RFU, SH3YL1 / Fold change vs veh, SH3YL1 / RFU, ZEB2 / Fold change vs veh, ZEB2 / RFU, NRIP1 / Fold change vs veh, NRIP1 / RFU, PTTG1IP / Fold change vs veh, PTTG1IP / RFU, CAPN2 / Fold change vs veh, CAPN2 / RFU, MED14 / Fold change vs veh, MED14 / RFU, SNORA58 / Fold change vs veh, SNORA58 / RFU, C1orf63 / Fold change vs veh, C1orf63 / RFU, LRRFIP1 / Fold change vs veh, LRRFIP1 / RFU, NDUFAF7 / Fold change vs veh, NDUFAF7 / RFU, SLC12A2 / Fold change vs veh, SLC12A2 / RFU, IBTK / Fold change vs veh, IBTK / RFU, ESF1 / Fold change vs veh, ESF1 / Fold change vs veh, TMEM50B / RFU, TAOK1 / Fold change vs veh, TAOK1 / RFU, ACBD3 / Fold change vs veh, ACBD3 / RFU, TMA16 / Fold change vs veh, TMA16 / RFU, RWDD3 / Fold change vs veh, RWDD3 / RFU, BCAT1 / Fold change vs veh, BCAT1 / RFU, EDEM3 / Fold change vs veh, EDEM3 / RFU, TMEM33 / Fold change vs veh, TMEM33 / RFU, WDR75 / Fold change vs veh, WDR75 / RFU, AHCTF1 / Fold change vs veh, AHCTF1 / RFU, TFRC / Fold change vs veh, TFRC / RFU, ZDHHC17 / Fold change vs veh, ZDHHC17 / RFU, NOM1 / Fold change vs veh, NOM1 / RFU, ARL8B / Fold change vs veh, ARL8B / RFU, ZBTB11 / Fold change vs veh, ZBTB11 / RFU, TAMM41 / Fold change vs veh, TAMM41 / RFU, KIAA1704 /// LOC100996395 / Fold change vs veh, KIAA1704 /// LOC100996395 / RFU, ING1 / Fold change vs veh, ING1 / RFU, TRMT61B / Fold change vs veh, TRMT61B / RFU, FUBP3 / Fold change vs veh, FUBP3 / RFU, TP53 / Fold change vs veh, TP53 / RFU, TNKS2 / Fold change vs veh, TNKS2 / RFU, ZFP14 / Fold change vs veh, ZFP14 / RFU, ACTR2 / Fold change vs veh, ACTR2 / RFU, PPP3R1 / Fold change vs veh, PPP3R1 / RFU, PIK3R1 / Fold change vs veh, PIK3R1 / RFU, HNRNPA1 / Fold change vs veh, HNRNPA1 / RFU, RNF170 / Fold change vs veh, RNF170 / RFU, ZNF28 / Fold change vs veh, ZNF28 / RFU, RNGTT / Fold change vs veh, RNGTT / RFU, OGT / Fold change vs veh, OGT / RFU, BRD1 / Fold change vs veh, BRD1 / RFU, MARS / Fold change vs veh, MARS / RFU, ZNF655 / Fold change vs veh, ZNF655 / RFU, FAHD1 / Fold change vs veh, FAHD1 / RFU, BDP1 / Fold change vs veh, BDP1 / RFU, LRRCC1 / Fold change vs veh, LRRCC1 / RFU, ARID1A / Fold change vs veh, ARID1A / RFU, ZNF146 / Fold change vs veh, ZNF146 / RFU, ZNF330 / Fold change vs veh, ZNF330 / RFU, GPN3 / Fold change vs veh, GPN3 / RFU, C9orf123 / Fold change vs veh, C9orf123 / RFU, N4BP2L2 / Fold change vs veh, N4BP2L2 / RFU, ARFIP1 / Fold change vs veh, ARFIP1 / RFU, FAM179B / Fold change vs veh, FAM179B / RFU, BCL10 / Fold change vs veh, BCL10 / RFU, UHRF1BP1L / Fold change vs veh, UHRF1BP1L / RFU, BET1 / Fold change vs veh, BET1 / RFU, CNOT2 / Fold change vs veh, CNOT2 / RFU, ZNF268 / Fold change vs veh, ZNF268 / Fold change vs veh, ZNF507 / RFU, DGCR2 / Fold change vs veh, DGCR2 / RFU, WDSUB1 / Fold change vs veh, WDSUB1 / Fold change vs veh, HSP90B1 /// MIR3652 / RFU, ADSS / Fold change vs veh, ADSS / RFU, GK / Fold change vs veh, GK / RFU, ZNF148 / Fold change vs veh, ZNF148 / RFU, TAF9 / Fold change vs veh, TAF9 / RFU, SLC1A5 / Fold change vs veh, SLC1A5 / RFU, SLMO2 / Fold change vs veh, SLMO2 / RFU, ABCC4 / Fold change vs veh, ABCC4 / RFU, LOC101060439 /// RAP1B / Fold change vs veh, LOC101060439 /// RAP1B / RFU, RFX7 / Fold change vs veh, RFX7 / RFU, GTPBP10 / Fold change vs veh, GTPBP10 / RFU, CNEP1R1 / Fold change vs veh, CNEP1R1 / RFU, BIVM-ERCC5 /// ERCC5 / Fold change vs veh, BIVM-ERCC5 /// ERCC5 / RFU, ILF3 / Fold change vs veh, ILF3 / RFU 11762660_at / Fold change /veh 11762660_at / RFU VCAN (11757783_s_at) / Fold change /veh VCAN (11757783_s_at) / RFU DDX43 (11728927_at) / Fold change /veh DDX43 (11728927_at) / RFU KRT8 (11758188_x_at) / Fold change /veh KRT8 (11758188_x_at) / RFU NKD1 (11759106_at) / Fold change /veh NKD1 (11759106_at) / RFU SRD5A1 (11742802_a_at) / Fold change /veh SRD5A1 (11742802_a_at) / RFU TPSAB1 /// TPSB2 (11721975_s_at) / Fold change /veh TPSAB1 /// TPSB2 (11721975_s_at) / RFU GSTM3 (11746129_a_at) / Fold change /veh GSTM3 (11746129_a_at) / RFU IL23R (11737362_x_at) / Fold change /veh IL23R (11737362_x_at) / RFU TMEM51 (11727254_a_at) / Fold change /veh TMEM51 (11727254_a_at) / RFU PIWIL2 (11732686_x_at) / Fold change /veh PIWIL2 (11732686_x_at) / RFU ORM1 (11744905_x_at) / Fold change /veh ORM1 (11744905_x_at) / RFU CCDC152 (11743942_at) / Fold change /veh CCDC152 (11743942_at) / RFU ECM1 (11717891_a_at) / Fold change /veh ECM1 (11717891_a_at) / RFU IL23R (11748794_a_at) / Fold change /veh IL23R (11748794_a_at) / RFU TNFAIP8L3 (11732012_x_at) / Fold change /veh TNFAIP8L3 (11732012_x_at) / RFU MBOAT4 (11741988_at) / Fold change /veh MBOAT4 (11741988_at) / RFU 11764193_at / Fold change /veh 11764193_at / RFU TMEM53 (11763286_at) / Fold change /veh TMEM53 (11763286_at) / RFU MAGEB2 (11727129_at) / Fold change /veh MAGEB2 (11727129_at) / RFU TMEM200A (11744735_a_at) / Fold change /veh TMEM200A (11744735_a_at) / RFU CCDC152 (11751479_a_at) / Fold change /veh CCDC152 (11751479_a_at) / RFU FAM211A (11726209_a_at) / Fold change /veh FAM211A (11726209_a_at) / RFU RGS16 (11746705_a_at) / Fold change /veh RGS16 (11746705_a_at) / RFU VCAN (11755009_s_at) / Fold change /veh VCAN (11755009_s_at) / RFU RHOB (11743442_s_at) / Fold change /veh RHOB (11743442_s_at) / RFU RGS16 (11720943_a_at) / Fold change /veh RGS16 (11720943_a_at) / RFU RGS16 (11720944_at) / Fold change /veh RGS16 (11720944_at) / RFU, VPS4B / Fold change vs veh, VPS4B / RFU, CREB1 / Fold change vs veh, CREB1 / RFU, DNAJC13 / Fold change vs veh, DNAJC13 / RFU, GNAQ / Fold change vs veh, GNAQ / RFU, CDK5R1 / Fold change vs veh, CDK5R1 / RFU, ZRANB3 / Fold change vs veh, ZRANB3 / RFU, CUL4A / Fold change vs veh, CUL4A / RFU, CCNY / Fold change vs veh, CCNY / RFU, UFL1 / Fold change vs veh, UFL1 / RFU, COG3 / Fold change vs veh, COG3 / RFU, DIAPH2 / Fold change vs veh, DIAPH2 / RFU, SKA2 / Fold change vs veh, SKA2 / RFU, AFF3 / Fold change vs veh, AFF3 / RFU, LMF1 / Fold change vs veh, LMF1 / RFU, IPO11 / Fold change vs veh, IPO11 / RFU, DFFB / Fold change vs veh, DFFB / RFU, FOXP1 / Fold change vs veh, FOXP1 / RFU, CARD8 / Fold change vs veh, CARD8 / RFU, STRN3 / Fold change vs veh, STRN3 / RFU, ADK / Fold change vs veh, ADK / RFU, RASSF2 / Fold change vs veh, RASSF2 / RFU, WIPF1 / Fold change vs veh, WIPF1 / RFU, LARP1B / Fold change vs veh, LARP1B / RFU, RASA1 / Fold change vs veh, RASA1 / RFU, RB1 / Fold change vs veh, RB1 / RFU, PPFIA1 / Fold change vs veh, PPFIA1 / RFU, MAT2A / Fold change vs veh, MAT2A / RFU, CCT5 / Fold change vs veh, CCT5 / RFU, WDR92 / Fold change vs veh, WDR92 / RFU, CUX1 / Fold change vs veh, CUX1 / RFU, TTC7A / Fold change vs veh, TTC7A / RFU, TMEM135 / Fold change vs veh, TMEM135 / RFU, DEPTOR / Fold change vs veh, DEPTOR / RFU, CPM / Fold change vs veh, CPM / RFU, DNAJB6 / Fold change vs veh, DNAJB6 / RFU, CACNA2D3 / Fold change vs veh, CACNA2D3 / RFU, DTX4 / Fold change vs veh, DTX4 / RFU, TFCP2 / Fold change vs veh, TFCP2 / RFU, GMCL1 /// GMCL1P1 / Fold change vs veh, GMCL1 /// GMCL1P1 / RFU, AEBP2 / Fold change vs veh, AEBP2 / RFU, SNHG1 /// SNORD22 /// SNORD25 /// SNORD26 /// SNORD27 /// SNORD28 /// SNORD29 /// SNORD31 / Fold change vs veh, SNHG1 /// SNORD22 /// SNORD25 /// SNORD26 /// SNORD27 /// SNORD28 /// SNORD29 /// SNORD31 / Fold change (Aza/veh), C12orf56 (ProbeSet 11735607_a_at) / Fold change (ACY-1035/veh), C12orf56 (ProbeSet 11735607_a_at) / Fold change (Aza/veh), FGFR1OP (ProbeSet 11751329_s_at) / Fold change (ACY-1035/veh), FGFR1OP (ProbeSet 11751329_s_at) / Fold change (Aza/veh), VPS36 (ProbeSet 11739960_a_at) / Fold change (ACY-1035/veh), VPS36 (ProbeSet 11739960_a_at) / RFU SYPL1 (11715823_x_at) / Fold change /veh SYPL1 (11715823_x_at) / RFU IGFBP7 (11715501_s_at) / Fold change /veh IGFBP7 (11715501_s_at) / RFU REEP3 (11722064_at) / Fold change /veh REEP3 (11722064_at) / RFU IGLL1 (11728026_x_at) / Fold change /veh IGLL1 (11728026_x_at): dose or concentration left out as unconfirmed
Settings: ProbeSet 11724763_s_at; LIST D

Nc1ncn([C@@H]2O[C@H](CO)[C@@H](O)[C@H]2O)c(=O)n1 [azacitidine]
RFU, DEPTOR: 80.20 RFU
